Measurements reported in US7235547B2, “Pharmaceutical composition comprising an AChE inhibitor and a mGluR2 antagonist” (priority 2003, dated 2007).
Where a name gives a salt, the structure may show the parent alone.

System: scopolamine-induced working memory deficit
Assay: scopolamine-induced working memory deficit in the delayed match to position (DMTP) task in rats
Type: in vivo, Male Lister Hooded rats
Details: for effect on the scopolamine deficit in DMTP task (percent correct responses): combination: Compound 23 1 mg/kg p.o. 180 min prior to testing, donepezil hydrochloride 1 mg/kg p.o. 145 min later, scopolamine 0.06 mg/kg s.c. 5 min later
Method: Except for during testing, water was available ad libitum at all times. The rats were tested in Med Associates operant chambers, equipped with 2 retractable levers positioned 7.5 cm either side of a central food tray. A single stimulus light (cue light) was positioned above each lever. Aluminum barriers (5.5 cm chamber extension) were fitted within the chamber to separate each lever from the food magazine. The chambers were controlled by Kestrel software (Conclusive Solutions, Harlow, UK) operating on an IBM compatible PC.
Rats were initially trained to lever press for a food reward (45 mg Formula ‘P’ pellet, Noyes, N.H.) on a continuous reinforcement (CRF) schedule with each lever presented singly an equal number of times (total 96 trials). On acquiring this behaviour the animals were next trained to make a matching response. Each trial consisted of a single lever being inserted into the chamber and the illumination of the appropriate stimulus light (sample stage). The rat was required to press the sample lever, which then immediately retracted. […] If the animal pressed the other lever, it was recorded as an incorrect response and was unrewarded. […] The next trial was signalled by illumination of the house light for a 5 s period, after which the sample lever was extended. The number of such trials per session was 96.
Initially, the delay between the sample and choice stage was 1 s after the first magazine nose poke. Once the animals had learned the matching rule (≧90% correct), the delay period was increased to 1, 2 and 4 s (32 trials per delay), up to a final level of 1, 2, 4, 8, 16, 24s. Sixteen trials were run at each delay. […] The parameters measured include % correct (total no. correct/(total no. correct+incorrect)×100) both for the total session and for each delay interval. Percent correct responses at each delay interval were analysed using an analysis of variance (ANOVA) with repeated measures on Treatment and Delay. Total percent correct responses were analysed using an ANOVA with repeated measures on Treatment. Post hoc tests were conducted by Newman-Keuls test. Statistical significance was accepted at P<0.05.
The experiment was conducted using a repeated measures design with each animal receiving each treatment according to a counterbalanced design. Animals were run 5 days/-week, with drug treatment on 2 test days per week, separated by at least 2 days. […] Scopolamine hydrobromide was dissolved in saline solution and was administered s.c. using an injection volume of 1 ml/kg.

SMILES | effect on the scopolamine deficit in DMTP task (percent correct responses) | total correct responses collapsed over the delay intervals (scopolamine 0.06 mg/kg s.c.) | percent correct responses (per delay interval) (scopolamine 0.06 mg/kg s.c., delays 1-24 s)
COc1cc2c(cc1OC)C(=O)C(CC1CCN(Cc3ccccc3)CC1)C2 (stereo not shown) [donepezil hydrochloride] | reversal of the scopolamine deficit |  | 
Cc1cc(-c2cccc(C3=Nc4cc(C)c(C(F)(F)F)cc4NC(=O)C3)c2)cc(C)n1 [Compound 23, 4-[3-(2,6-dimethyl-pyridin-4-yl)-phenyl]-7-methyl-8-trifluoromethyl-1,3-dihydro benzo[b][1,4]diazepin-2-one] | reversal of the scopolamine deficit |  | 
CN1[C@@H]2C[C@@H](OC(=O)[C@H](CO)c3ccccc3)C[C@H]1[C@@H]1O[C@@H]12 [Scopolamine, Scopolamine hydrobromide] |  | significant reduction | significant delay-dependent reduction
